Broadly, the inhibition is the relative decrease from the control value, in per cent.

The source of these data is patent US10301297B2, “Substituted nicotinimide inhibitors of BTK and their preparation and use in the treatment of cancer, inflammation and autoimmune disease” (GUANGZHOU INNOCARE PHARMA TECH CO., LTD., priority 2013, dated 2019).

One assay concerns the target FYN (Homo sapiens (Human), UniProt P06241). Briefly: kinase binding screen (affinity beads, qPCR readout) at 1000 nM. The note with it: read-out: % Inhibition @ 1000 nM.
A further assay has as its target SRC (Homo sapiens (Human), UniProt P12931). The description is as above.
The next assay has as its target HCK (Homo sapiens (Human), UniProt P08631). The assay is described as above. As to conditions: read-out: % Inhibition @ 1000 nM.
The target in the next assay is EGFR (Homo sapiens (Human), UniProt P00533). The description is as above. As to conditions: read-out: % Inhibition @ 1000 nM.
In assay [1] the target is T1, BTK (Homo sapiens (Human), UniProt Q06187). The assay is described as above.
Another assay addresses BLK (Homo sapiens (Human), UniProt P51451). The assay is described as above. As to conditions: read-out: % Inhibition @ 1000 nM.
The next assay concerns the target FGR (Homo sapiens (Human), UniProt P09769). Described as above. As to conditions: read-out: % Inhibition @ 1000 nM.
The target of a further assay is YES (Homo sapiens (Human), UniProt P07947). Described as above. As to conditions: read-out: % Inhibition @ 1000 nM.
In a further assay the target is LYN (Homo sapiens (Human), UniProt P07948). The description is as above. The note with it: read-out: % Inhibition @ 1000 nM.
The target of another assay is LCK (Homo sapiens (Human), UniProt P06239). Described as above. As to conditions: read-out: % Inhibition @ 1000 nM.
The target of assay [2] is T1, BTK. Briefly: ADP-Glo Kinase biochemical assay, IC50 determination of BTK inhibitors. The note with it: head-to-head assays. Here is the method: Biological Properties: IC50 Determination of BTK Inhibitors in ADP-Glo Kinase Biochemical Assay
• Enzyme concentration: 8 ng/5 ul. • ATP concentration: 50 uM • Substrate (peptide) concentration: 0.2 mg/ml. • Reaction buffer composition: 40 mM Tris-HCl pH7.5, 10 mM MgCl2, 2 mM MnCl2, 0.1 mg/mL BSA, 0.05 mM DTT. • Test compound concentration: DMSO≤0.5%. Methods: Compound Dosage Gradient Solution Preparation: […]
1× and 2× assay buffer were made at first. BTK kinase was diluted with 1× assay buffer but substrate was diluted with 2× assay buffer. 1 ul of diluted compound was transferred into 384-well assay plate, and then 2.0 ul of enzyme solution was added, and spun at 2000 rpm for 1 min. This mixture was incubated at 24° C. for 30 mins. 2 ul of peptide substrate/ATP mixture was added into the assay plate to start the reaction. The mixture was mixed thoroughly and then the 384-well plate was spun and incubated at 24° C. for 60 mins. 5.0 ul of ADP-Glo Reagent was added to stop the kinase activity and deplete the ATP unconsumed, and the plate was mixed thoroughly and incubated at 24° C. for 40 min. Then, 10.0 ul of Kinase Detection reagent was added, and the plate was centrifuged and then kept at 24° C. for 30 min. The luminescence signal was read on Envision. […]
All data was analyzed with IDBS XLfit5 software (ID Business Solutions Ltd., UK).

T1 sequence (Q06187 whole entry): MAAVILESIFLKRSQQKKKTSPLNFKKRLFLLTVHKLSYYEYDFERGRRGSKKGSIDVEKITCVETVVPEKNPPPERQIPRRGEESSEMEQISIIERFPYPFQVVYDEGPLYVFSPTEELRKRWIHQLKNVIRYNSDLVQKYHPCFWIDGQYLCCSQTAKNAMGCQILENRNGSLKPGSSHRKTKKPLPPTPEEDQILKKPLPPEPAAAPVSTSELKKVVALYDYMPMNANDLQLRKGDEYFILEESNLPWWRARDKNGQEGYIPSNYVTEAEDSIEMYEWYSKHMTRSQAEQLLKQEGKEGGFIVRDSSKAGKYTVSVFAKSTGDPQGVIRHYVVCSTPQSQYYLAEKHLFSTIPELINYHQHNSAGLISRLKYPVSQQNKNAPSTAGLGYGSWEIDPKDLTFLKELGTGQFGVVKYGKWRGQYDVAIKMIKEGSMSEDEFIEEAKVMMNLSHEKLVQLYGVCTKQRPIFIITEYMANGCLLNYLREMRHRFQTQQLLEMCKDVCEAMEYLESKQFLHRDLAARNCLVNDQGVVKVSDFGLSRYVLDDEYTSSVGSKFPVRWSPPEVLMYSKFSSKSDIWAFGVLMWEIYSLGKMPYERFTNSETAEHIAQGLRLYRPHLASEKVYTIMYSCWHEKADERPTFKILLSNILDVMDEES
SRC, sequence (P12931 whole entry, looked up): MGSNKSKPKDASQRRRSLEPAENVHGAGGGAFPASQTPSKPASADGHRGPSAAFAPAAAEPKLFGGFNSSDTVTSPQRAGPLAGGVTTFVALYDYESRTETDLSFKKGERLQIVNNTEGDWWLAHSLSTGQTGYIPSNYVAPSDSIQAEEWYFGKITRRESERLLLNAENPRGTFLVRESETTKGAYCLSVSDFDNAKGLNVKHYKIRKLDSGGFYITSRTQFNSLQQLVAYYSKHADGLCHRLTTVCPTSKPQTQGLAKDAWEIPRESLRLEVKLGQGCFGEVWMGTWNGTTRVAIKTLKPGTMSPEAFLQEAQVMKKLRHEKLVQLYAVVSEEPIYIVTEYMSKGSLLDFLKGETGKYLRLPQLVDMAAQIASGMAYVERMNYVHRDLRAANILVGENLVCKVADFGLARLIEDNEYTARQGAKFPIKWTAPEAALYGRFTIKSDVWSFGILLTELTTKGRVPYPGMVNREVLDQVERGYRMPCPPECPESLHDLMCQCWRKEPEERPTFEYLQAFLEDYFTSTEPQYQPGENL
BLK, sequence (P51451 whole entry): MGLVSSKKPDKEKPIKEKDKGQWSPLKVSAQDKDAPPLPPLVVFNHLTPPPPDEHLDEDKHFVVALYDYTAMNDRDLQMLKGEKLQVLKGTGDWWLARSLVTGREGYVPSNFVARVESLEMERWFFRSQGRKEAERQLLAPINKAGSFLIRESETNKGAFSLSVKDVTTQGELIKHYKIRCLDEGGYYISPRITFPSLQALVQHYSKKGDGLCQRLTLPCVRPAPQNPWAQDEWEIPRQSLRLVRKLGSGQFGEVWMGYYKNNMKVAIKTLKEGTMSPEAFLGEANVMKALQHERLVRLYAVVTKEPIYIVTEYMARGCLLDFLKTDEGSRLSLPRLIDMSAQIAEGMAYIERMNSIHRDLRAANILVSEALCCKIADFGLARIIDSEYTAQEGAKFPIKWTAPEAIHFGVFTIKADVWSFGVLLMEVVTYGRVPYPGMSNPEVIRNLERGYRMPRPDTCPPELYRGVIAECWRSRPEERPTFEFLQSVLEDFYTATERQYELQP
YES, sequence (P07947 whole entry): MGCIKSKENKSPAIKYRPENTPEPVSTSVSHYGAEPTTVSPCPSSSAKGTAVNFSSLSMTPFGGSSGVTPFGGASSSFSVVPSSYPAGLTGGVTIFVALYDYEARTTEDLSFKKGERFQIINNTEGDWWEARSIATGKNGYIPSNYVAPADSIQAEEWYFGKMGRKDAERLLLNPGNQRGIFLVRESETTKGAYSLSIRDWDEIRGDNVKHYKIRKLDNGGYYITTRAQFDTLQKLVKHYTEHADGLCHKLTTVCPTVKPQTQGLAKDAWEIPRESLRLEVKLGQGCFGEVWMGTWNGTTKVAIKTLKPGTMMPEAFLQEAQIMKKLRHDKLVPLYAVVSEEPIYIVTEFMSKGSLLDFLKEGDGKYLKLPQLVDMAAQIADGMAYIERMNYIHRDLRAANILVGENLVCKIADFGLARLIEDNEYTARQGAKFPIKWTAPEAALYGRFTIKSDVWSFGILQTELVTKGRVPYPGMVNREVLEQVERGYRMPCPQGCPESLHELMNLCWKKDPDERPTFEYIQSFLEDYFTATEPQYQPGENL
FGR, sequence (P09769 whole entry): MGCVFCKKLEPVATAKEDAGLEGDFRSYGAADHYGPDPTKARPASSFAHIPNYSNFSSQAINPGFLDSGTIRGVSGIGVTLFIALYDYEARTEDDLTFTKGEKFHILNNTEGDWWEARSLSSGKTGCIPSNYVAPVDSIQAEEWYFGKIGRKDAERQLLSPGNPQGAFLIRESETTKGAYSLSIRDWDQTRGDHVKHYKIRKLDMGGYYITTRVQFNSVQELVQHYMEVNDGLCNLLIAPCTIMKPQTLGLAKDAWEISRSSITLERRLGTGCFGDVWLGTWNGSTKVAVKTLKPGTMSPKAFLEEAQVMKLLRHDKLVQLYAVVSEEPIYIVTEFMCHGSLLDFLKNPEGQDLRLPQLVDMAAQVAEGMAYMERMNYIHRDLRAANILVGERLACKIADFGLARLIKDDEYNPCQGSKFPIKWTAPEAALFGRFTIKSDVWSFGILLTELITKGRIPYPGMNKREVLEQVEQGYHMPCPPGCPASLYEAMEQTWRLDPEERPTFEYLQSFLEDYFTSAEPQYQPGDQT
FYN, sequence (P06241 whole entry): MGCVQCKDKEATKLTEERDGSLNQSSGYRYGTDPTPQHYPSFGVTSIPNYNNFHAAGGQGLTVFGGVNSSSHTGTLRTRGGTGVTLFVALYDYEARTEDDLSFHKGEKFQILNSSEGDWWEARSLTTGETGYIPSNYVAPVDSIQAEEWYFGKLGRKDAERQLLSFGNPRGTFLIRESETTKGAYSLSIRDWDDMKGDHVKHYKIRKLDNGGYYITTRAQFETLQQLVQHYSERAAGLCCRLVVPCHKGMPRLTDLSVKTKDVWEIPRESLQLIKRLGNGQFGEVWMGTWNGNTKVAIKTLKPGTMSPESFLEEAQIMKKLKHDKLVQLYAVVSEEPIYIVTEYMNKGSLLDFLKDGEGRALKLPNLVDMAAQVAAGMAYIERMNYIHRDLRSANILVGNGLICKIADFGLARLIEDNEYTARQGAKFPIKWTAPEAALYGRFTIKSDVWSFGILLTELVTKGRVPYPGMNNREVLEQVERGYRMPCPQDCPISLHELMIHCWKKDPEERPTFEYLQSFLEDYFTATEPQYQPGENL
LYN, sequence (P07948 whole entry): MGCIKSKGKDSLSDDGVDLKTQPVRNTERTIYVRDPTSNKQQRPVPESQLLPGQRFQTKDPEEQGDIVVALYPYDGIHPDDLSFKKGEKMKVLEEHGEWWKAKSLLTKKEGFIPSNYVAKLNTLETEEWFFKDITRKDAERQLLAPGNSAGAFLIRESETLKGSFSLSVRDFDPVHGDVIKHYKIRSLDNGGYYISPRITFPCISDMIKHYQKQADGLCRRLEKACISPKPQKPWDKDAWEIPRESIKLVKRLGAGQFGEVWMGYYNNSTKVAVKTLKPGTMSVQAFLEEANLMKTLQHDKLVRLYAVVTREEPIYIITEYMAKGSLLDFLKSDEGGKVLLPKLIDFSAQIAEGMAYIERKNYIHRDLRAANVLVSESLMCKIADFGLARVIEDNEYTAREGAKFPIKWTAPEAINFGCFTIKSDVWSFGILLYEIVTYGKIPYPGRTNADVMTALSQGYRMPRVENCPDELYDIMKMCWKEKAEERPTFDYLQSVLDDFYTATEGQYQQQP
HCK, sequence (P08631 whole entry): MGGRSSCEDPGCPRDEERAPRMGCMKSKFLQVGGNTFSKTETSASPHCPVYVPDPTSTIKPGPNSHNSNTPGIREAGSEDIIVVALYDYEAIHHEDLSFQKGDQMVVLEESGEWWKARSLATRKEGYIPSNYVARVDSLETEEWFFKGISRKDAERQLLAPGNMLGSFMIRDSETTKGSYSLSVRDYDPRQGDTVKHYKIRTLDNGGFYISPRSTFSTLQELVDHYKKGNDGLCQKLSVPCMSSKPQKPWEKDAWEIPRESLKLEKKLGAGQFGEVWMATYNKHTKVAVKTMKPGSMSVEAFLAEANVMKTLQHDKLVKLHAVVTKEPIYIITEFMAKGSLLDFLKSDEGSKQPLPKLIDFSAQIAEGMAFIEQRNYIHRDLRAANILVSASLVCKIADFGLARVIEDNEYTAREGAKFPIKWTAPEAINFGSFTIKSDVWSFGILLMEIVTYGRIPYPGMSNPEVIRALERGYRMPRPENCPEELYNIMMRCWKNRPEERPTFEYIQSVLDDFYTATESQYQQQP
LCK, sequence (P06239 whole entry): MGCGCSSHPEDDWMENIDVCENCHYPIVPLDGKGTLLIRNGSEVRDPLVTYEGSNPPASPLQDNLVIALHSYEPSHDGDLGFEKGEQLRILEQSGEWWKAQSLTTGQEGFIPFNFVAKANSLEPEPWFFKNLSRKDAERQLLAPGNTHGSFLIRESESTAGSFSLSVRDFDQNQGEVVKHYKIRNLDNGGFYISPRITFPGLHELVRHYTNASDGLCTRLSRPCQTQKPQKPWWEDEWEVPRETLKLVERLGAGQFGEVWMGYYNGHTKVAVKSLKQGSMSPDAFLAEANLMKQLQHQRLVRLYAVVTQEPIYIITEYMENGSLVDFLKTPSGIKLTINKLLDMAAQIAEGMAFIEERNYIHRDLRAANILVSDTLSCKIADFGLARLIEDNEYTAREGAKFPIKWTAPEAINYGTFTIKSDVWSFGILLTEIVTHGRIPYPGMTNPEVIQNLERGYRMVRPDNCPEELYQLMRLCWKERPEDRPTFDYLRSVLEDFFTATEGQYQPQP

For the compound `C=CC(=O)N1CCN(c2ccc(C(N)=O)c(-c3ccc(Oc4ccccc4)cc3)n2)CC1` [Example 5, 6-(4-acryloylpiperazin-1-yl)-2-(4-phenoxyphenyl)nicotinamide], the inhibition at 1 µM is 5% at FYN; 33% at SRC (SRC, 1000 nM); 21% on HCK; 23% on EGFR; 99.7% on BTK [1]; 46% at BLK. The inhibition at 1 µM at FGR stood at 0%; at YES, 6%; at LYN, 7%; at LCK, 0%. In addition, at SRC (BTK vs SRC), the “Fold Difference” value is more than 100x. The IC50 at BTK [2] (unit not printed in Table 2, read-out: BTK in vitro potency) was determined as 4.7 nM. In addition, at BTK [2] (in vitro BTK potency), the “improvement in potency over Analogs 1 and 2” value was approximately 100 ×.
Turning to `C=CC(=O)N1CCC(c2ccc(C(N)=O)c(-c3ccc(Oc4ccccc4)cc3)n2)CC1` [Example 3, 6-(1-acryloylpiperidin-4-yl)-2-(4-phenoxyphenyl)nicotinamide], the inhibition at 1 µM was determined as 0% at FYN; 0% at HCK; 51% at BLK; 0% on FGR; 8% at YES; 3% at LYN. Also, on LCK, the inhibition at 1 µM worked out at 11%.
